Data from US7642283B2, “Mitochrondrial permeability transition pore affinity labels and modulators” (Hoffmann-La Roche Inc., priority 2003, dated 2010).

Assays:
VDAC1 = molecular target: T1, VDAC1 (Rattus norvegicus, UniProt Q9Z2L0); assay: Affinity labeling of rat mitochondria with the tritiated spiro compound, SDS-PAGE and fluorography; assay type: binding
T1 construct: from tissue; host or cells: Percoll-purified rat brain and liver mitochondria
Description: FIG. 6: Affinity-labeling of isolated rat brain (A) and liver (B) mitochondria. Mitochondrial preparations were incubated in the presence of 10 nM Spiro[cyclopentane-1,5′-[5H]dibenzo[a,d]cyclohepten]-2-one,10′,11′-t2-10′,11′-dihydro-3-methylene- for 15 min at 25° C. in presence or absence of various concentrations of Spiro[cyclopentane-1,5′-[5H]dibenzo[a,d]cyclohepten]-2-one,10′,11′-dihydro-3-methylene-(unlabeled). Samples were submitted to SDS-PAGE (see Experimental Procedures section for details) and fluorography. The fluorograms of the gels are shown. The molecular mass scale (kDa) is shown in the ordinate.
(§1) FIG. 8: (A) Effect of monobromobimano (MBBM) and phenylarsino oxide (PhAO) on VDAC1 labeling by Spiro[cyclopentane-1,5′-[5H]dibenzo[a,d]cyclohepten]-2-one,10′,11′-t2-10′,11′-dihydro-3-methylene- in rat brain mitochondria. Experimental conditions were as in the legend to FIG. 5. (B) Effect of various MPTP inhibitors, atractyloside (ATR) and DIDS on VDAC1 labeling by Spiro[cyclopentane-1,5′-[5H]dibenzo[a,d]cyclohepten]-2-one,10′,11′-t2-10′,11′-dihydro-3-methylene- in rat brain mitochondria. Mitochondria were exposed to DIDS for 5 min before rinsing for removal of the free agent and labeling with Spiro[cyclopentane-1,5′-[5H]dibenzo[a,d]cyclohepten]-2-one,10′,11′-t2-10′,11′-dihydro-3-methylene.
Percoll purified mitochondria (˜30 μg protein per sample) were incubated in the presence of 10 nM Spiro[cyclopentane-1,5′-[5H]dibenzo[a,d]cyclohepten]-2-one,10′,11′-t2-10′,11′-dihydro-3-methylene- in a final volume of 200 μl. After incubation for 15 min at 25° C., samples were centrifuged at 25000×g and the mitochondrial pellet rinsed twice with buffer. Samples were then solubilized in sample buffer containing β-mercaptoethanol (1 h at 37° C.) and subjected to SDS-polyacrylamide gel-electrophoresis (SDS-PAGE) on Tris-glycine Novex pre-cast mini-gels (12% monomer concentration, Invitrogen BV, The Netherlands). After Coomassie Blue staining, gels were processed for fluorography by soaking in Amplify™ (Amersham Biosciences), drying and exposing to X-ray BioMax MS film with BioMax MS intensifying screen (Kodak) at −80° C. for the appropriate time.
as §1, with “Effect” for “FIG. 8: (A) Effect”, “monobromobimano” for “monobromobimano (MBBM)”, “oxide” for “oxide (PhAO)”, “Example 12 (FIG. 8A).” for “the legend to FIG. 5. (B)”, “Spiro[cyclopentane-1,5′-[5H]dibenzo[a,d]cyclohepten]-2-one,10′,11′-t2-10′,11′-dihydro-3-methylene (FIG. 8B).” for “Spiro[cyclopentane-1,5′-[5H]dibenzo[a,d]cyclohepten]-2-one,10′,11′-t2-10′,11′-dihydro-3-methylene.”

YVDAC1 [1] = molecular target: T2, YVDAC1 (Saccharomyces cerevisiae, UniProt P04840); assay: Affinity labeling of yeast mitochondria (Δpor1 and Δpor1 expressing YVDAC1); assay type: binding; conditions: Δpor1 strains with plasmid expressing YVDAC1
T2 construct: expressed in transfected cells; host or cells: Δpor1 yeast strain carrying a YVDAC1 plasmid; isolated mitochondria
T2 sequence (P04840 2-283): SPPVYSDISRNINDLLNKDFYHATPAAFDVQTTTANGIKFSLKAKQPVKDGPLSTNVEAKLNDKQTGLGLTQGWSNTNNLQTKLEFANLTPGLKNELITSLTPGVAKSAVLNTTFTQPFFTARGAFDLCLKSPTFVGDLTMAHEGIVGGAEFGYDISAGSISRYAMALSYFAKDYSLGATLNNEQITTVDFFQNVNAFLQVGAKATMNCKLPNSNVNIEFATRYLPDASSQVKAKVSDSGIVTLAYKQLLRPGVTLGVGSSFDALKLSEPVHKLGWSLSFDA
Excerpt: (§2) FIG. 9: Spiro[cyclopentane-1,5′-[5H]dibenzo[a,d]cyclohepten]-2-one,10′,11′-t2-10′,11′-dihydro-3-methylene affinity labeling of yeast mitochondria lacking the por1 gene for YVDAC1 (Δpor1) and into Δpor1 yeast mitochondria transfected with YVDAC1 in presence or absence of different concentrations of Spiro[cyclopentane-1,5′-[5H]dibenzo[a,d]cyclohepten]-2-one,10′,11′-dihydro-3-methylene (unlabeled). The fluorograms of gels after SDS-PAGE are shown. Mitochondria isolated from yeast strains were incubated in the presence of 10 nM Spiro[cyclopentane-1,5′-[5H]dibenzo[a,d]cyclohepten]-2-one,10′,11′-t2-10′,11′-dihydro-3-methylene for 15 min at 25° C. Numbers indicate the concentrations (μM) of the various compounds added.
(§3) To further confirm VDAC1 as the protein target of Spiro[cyclopentane-1,5′-[5H]dibenzo[a,d]cyclohepten]-2-one,10′,11′-dihydro-3-methylene-, the labeling of proteins in mitochondria prepared from yeasts by Spiro[cyclopentane-1,5′-[5H]dibenzo[a,d]cyclohepten]-2-one,10′,11′-t2-10′,11′-dihydro-3-methylene- was investigated. […] Increasing concentration of unlabelled Spiro[cyclopentane-1,5′-[5H]dibenzo[a,d]cyclohepten]-2-one,10′,11′-dihydro-3-methylene-inhibited incorporation of the radioactivity (FIG. 9).

YVDAC1 [2] = assay: as above; assay type: binding; conditions: Δpor1 strains
Excerpt: as §2, §3

human VDAC1 = molecular target: T3, human VDAC1 (Homo sapiens, UniProt P21796); assay: Affinity labeling of Δpor1 yeast mitochondria expressing human VDAC1; assay type: binding; conditions: Δpor1 strains with plasmid expressing human VDAC1
T3 construct: expressed in transfected cells; host or cells: Δpor1 yeast strain transformed with a human VDAC1 plasmid; isolated mitochondria
Excerpt: as §3

MPTP [3] = assay: Ca2+-induced swelling (MPTP) in rat liver mitochondria energised with succinate; assay type: biochemical; conditions: as E1, in the presence of 1 μg/ml oligomycin
Description: Ca^2+-induced swelling (sucrose permeability) in energized mitochondria was assayed at 25° C. in 96 well-plates by measuring changes in absorbance at 540 nm by means of a […]ax 250 spectrophometer controlled by the SOFTmax PRO™ software (Molecular Devices, Switzerland). The incubation medium contained 0.2 M sucrose, 10 mM Tris-Mops, pH 7.4, 1 mM Pi-Tris, 5 μM EGTA. Succinate (5 mM, in the presence of 2 μM rotenone) or 5 mM glutamate/2.5 mM malate, buffered to pH 7.4 with Tris, were used as respiratory substrates. After a short (˜5 min) preincubation in presence or absence of test compounds, mitochondrial swelling was induced by the addition of 20 μl CaCl2 at final concentrations ranging from 40 to 80 μM, depending on respiratory substrates and Ca^2+ sensitivity of the mitochondrial preparation. The final incubation volume was 0.2 ml and the concentration of mitochondria was ˜0.5 mg mitochondrial protein ml^−1. Swelling kinetics was followed for up to 30 min at 25° C. Absorbance readings were taken every 12 sec and the plate was shaken for 3 s between readings to ensure oxygen diffusion during the experiment and to avoid sedimentation of the mitochondria.
The incubation medium contained 0.2 M sucrose, 10 mM Tris-Mops, pH 7.4, 1 mM Pi-Tris, 5 μM EGTA.

MPTP [4] = molecular target: T4, MPTP (Rattus norvegicus, UniProt Q9Z2L0); assay: Ca2+-retention capacity of rat brain mitochondria (Calcium Green-5N); assay type: biochemical; conditions: Ca2+ pulses, rat brain mitochondria
T4 construct: other: n=2; glutamate/malate; other: glutamate/malate; 20 min; mean±SEM; unit not given; other: 300 nM; relieved by 50 μM Ub5
Description: FIG. 4: (A) Effect of Spiro[cyclopentane-1,5′-[5H]dibenzo[a,d]cyclohepten]-2-one,10′,11′-dihydro-3-methylene- and CsA on Ca^2+-retention capacity of rat brain mitochondria. The incubation medium contained 0.2 M sucrose, 10 mM Tris-Mops, pH 7.4, 1 mM Pi-Tris, 5 μM EGTA and 5 mM glutamate/2.5 mM malate, buffered to pH 7.4 with Tris, containing 0.01% (w/v) bovine serum albumin and 1 μM Calcium Green-5N. The final volume was 2.5 ml. Trace (a) control, (b) 1 μM CsA, (c) 1 μM Spiro[cyclopentane-1,5′-[5H]dibenzo[a,d]cyclohepten]-2-one,10′,11′-dihydro-3-methylene- and (d) 1 μM CsA plus 1 μM Spiro[cyclopentane-1,5′-[5H]dibenzo[a,d]cyclohepten]-2-one,10′,11′-dihydro-3-methylene-. Each fluorescence spike corresponds to addition of 5 μM Ca^2+. (B) Comparison of Ca^2+-retention capacity in liver (a) and brain mitochondria (b).
Effect of Spiro[cyclopentane-1,5′-[5H]dibenzo[a,d]cyclohepten]-2-one,10′,11′-dihydro-3-methylene- and CsA on Ca^2+-retention capacity of rat brain mitochondria (FIG. 4). Measurement of extramitochondrial Ca^2+ was determined using a Perkin-Elmer LS-50B fluorimeter controlled by the FL WinLab computer program. […] The final volume was 2.5 ml and the cuvette was thermostated at 25° C. Brain mitochondria were then subjected to a train of 5 μM Ca^2+ additions (˜150 nmol mg protein^−1). Extramitochondrial Ca^2+ was monitored at excitation/emission wavelengths of 505-535. […] The Ca^2+-retention capacity in liver (a) and brain mitochondria (b) were also compared (FIG. 4B).
The effect of Spiro[cyclopentane-1,5′-[5H]dibenzo[a,d]cyclohepten]-2-one,10′,11′-dihydro-3-methylene- at inhibiting MPTP was also investigated in mitochondria isolated from rat forebrain. […] Due to the difficulties mentioned above, the effect of Spiro[cyclopentane-1,5′-[5H]dibenzo[a,d]cyclohepten]-2-one,10′,11′-dihydro-3-methylene- on MPTP in brain mitochondria was more accurately investigated by subjecting mitochondria isolated from rat forebrain to a series of Ca^2+ pulses (5 μM, ˜150 nmol mg protein^−1) and by monitoring extramitochondrial Ca^2+ or using fluororescent probes.

T1 sequence (Q9Z2L0 whole entry): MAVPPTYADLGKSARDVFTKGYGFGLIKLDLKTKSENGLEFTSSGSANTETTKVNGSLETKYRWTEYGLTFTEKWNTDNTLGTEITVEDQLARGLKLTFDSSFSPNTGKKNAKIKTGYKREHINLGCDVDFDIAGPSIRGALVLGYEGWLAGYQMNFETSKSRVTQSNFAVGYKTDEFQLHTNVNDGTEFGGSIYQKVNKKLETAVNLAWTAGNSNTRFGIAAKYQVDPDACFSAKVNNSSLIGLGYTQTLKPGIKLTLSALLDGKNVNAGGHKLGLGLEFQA
T3 sequence (P21796 whole entry): as the sequence (Q9Z2L0 whole entry) above, with N55T, V129M, S160A, V227I counted along it
T4 sequence (Q9Z2L0 2-283): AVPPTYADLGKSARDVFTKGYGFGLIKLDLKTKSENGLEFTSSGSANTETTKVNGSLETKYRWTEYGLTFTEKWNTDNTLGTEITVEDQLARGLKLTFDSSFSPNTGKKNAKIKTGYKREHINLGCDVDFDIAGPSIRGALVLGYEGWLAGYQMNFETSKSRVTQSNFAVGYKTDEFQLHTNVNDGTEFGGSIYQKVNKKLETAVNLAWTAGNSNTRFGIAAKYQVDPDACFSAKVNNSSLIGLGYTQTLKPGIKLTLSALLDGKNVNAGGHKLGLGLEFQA

Row | Compound | Labeling of ~32 kDa protein (VDAC1) (VDAC1; 10 nM, intact rat brain and liver mitochondria) | Labeling of 29 kDa band in yeast mitochondria (YVDAC1 [1]) | Labeling in yeast mitochondria lacking YVDAC1 (YVDAC1 [2]) | Labeling in yeast mitochondria expressing human VDAC1 (human VDAC1) | EC50 (MPTP [3]) | Additive effect when combined with the spiro compound (Example 2) (MPTP [4]) | Effect on VDAC1 labeling (incorporation of radioactivity) by the tritiated spiro compound (VDAC1; rat brain mitochondria, 10 nM radiolabel)
1 | [3H]C1c2ccccc2C2(CCC(=C)C2=O)c2ccccc2C1[3H] (stereo not shown) [Spiro[cyclopentane-1,5′-[5H]dibenzo[a,d]cyclohepten]-2-one,10′,11′-t2-10′,11′-dihydro-3-methylene-] | predominantly labeled | prominent labeling | virtually no labeling | no dear labeling | – | – | –
2 | Nc1ncnc2c1ncn2[C@@H]1O[C@H](COP(=O)(O)OP(=O)(O)O)[C@@H](O)[C@H]1O [ADP] | – | – | – | – | 4.8 µM | additive | did not affect
